Assays:
[1] = tested on: replicon RNA transcribed from SC2R; assay: microbe, parasite or virus in culture; assay type: cell-based, SARS-CoV-2; conditions: Severe acute respiratory syndrome coronavirus 2, 48 h, read-out: EC50, inhibition of the replication of replicon RNA transcribed from SC2R
[2] = tested on: replicon RNA transcribed from MERVR; assay type: cell-based, MERS-CoV
[3] = tested on: replicon RNA transcribed from NOBEVR; assay: microbe, parasite or virus in culture; assay type: cell-based, Nobecovirus
HCV replicon RNA = assay: HCV subgenomic replicon replication, Renilla luciferase activity; assay type: cell-based, genotype 1b HCV (1B-4 strain); conditions: Hepatitis C virus; 72 hours, RL activity, FIG. 15B; read-out: EC50, inhibition of the replication of HCV replicon RNA
[4] = tested on: replicon RNA transcribed from HKU1; assay type: cell-based, Embecovirus
[5] = tested on: replicon RNA transcribed from SC2R; assay type: cell-based, SARS-CoV-2
[6] = tested on: replicon RNA transcribed from SCVR; assay type: cell-based, SARS-CoV-1
[7] = Evaluation of cytotoxicity (WST-1); conditions: human, HuH-7.6c cells

Compound | replication of replicon RNA transcribed from MERVR [2] | replication of replicon RNA transcribed from NOBEVR [3] | replication of replicon RNA transcribed from HKU1 [4] | replication of replicon RNA transcribed from SC2R [5] | replication of replicon RNA transcribed from SCVR [6] | replication of replicon RNA in NOBEVR [3] | replication of replicon RNA in HKU1 [4] | other results
Cc1c(-c2ccc(N3CCc4cccc(C(=O)Nc5nc6ccccc6s5)c4C3)nc2C(=O)O)cnn1CC12CC3CC(CC(C3)C1)C2 [A-1331852] | inhibited | inhibited | inhibited | inhibited | inhibited |  |  | EC50 [1]: 1.46 nM; EC50 (HCV replicon RNA): 14.8 nM
CC(C)(C)[C@H](NC(=O)C(F)(F)F)C(=O)N1C[C@H]2[C@@H]([C@H]1C(=O)N[C@H](C#N)C[C@@H]1CCNC1=O)C2(C)C [PF-07321332] |  |  |  |  |  | did not inhibit | did not inhibit | 
CC(C)=CCC[C@]1(C)C=Cc2c(O)c3c(c(CC=C(C)C)c2O1)O[C@]12C(=C[C@@H]4C[C@H]1C(C)(C)O[C@@]2(C/C=C(/C)C(=O)O)C4=O)C3=O [gambogic acid] |  |  |  | inhibited |  |  |  | 
CC1(C)CCC(CN2CCN(c3ccc(C(=O)NS(=O)(=O)c4ccc(NCC5CCOCC5)c([N+](=O)[O-])c4)c(Oc4cnc5[nH]ccc5c4)c3)CC2)=C(c2ccc(Cl)cc2)C1 [venetoclax] |  |  |  | did not inhibit |  |  |  | 
CN(C)CC[C@H](CSc1ccccc1)Nc1ccc(S(=O)(=O)NC(=O)c2ccc(N3CCN(Cc4ccccc4-c4ccc(Cl)cc4)CC3)cc2)cc1[N+](=O)[O-] [ABT-737] | inhibited | inhibited | inhibited | inhibited | inhibited |  |  | 
CN(C)CC#Cc1ccc(OCCCc2sc(N3CCc4cccc(C(=O)Nc5nc6ccccc6s5)c4C3)nc2C(=O)O)c(F)c1 [A-1155463] | inhibited | inhibited | inhibited | inhibited | inhibited |  |  | concentration responsiveness of the replication level of SARS-CoV-2 replicon RNA [5]: inhibited the replication of replicon RNA transcribed from SC2R in a concentration-dependent manner
COc1cc2c(cc1OC)[C@@H](Cc1ccc(Oc3cc(C[C@@H]4c5cc(OC)c(OC)cc5CCN4C)ccc3O)cc1)N(C)CC2 [dauricine] |  |  |  |  |  |  |  | inhibitory activity against the replication of replicon RNA transcribed from NOBEVR [3]: strong inhibitory activity; replicon RNA replication inhibitory activity against SC2R [5]: replicon RNA replication inhibitory activity
CC1(C)CCC(c2ccc(Cl)cc2)=C(CN2CCN(c3ccc(C(=O)NS(=O)(=O)c4ccc(N[C@H](CCN5CCOCC5)CSc5ccccc5)c(S(=O)(=O)C(F)(F)F)c4)cc3)CC2)C1 [navitoclax] | inhibited | inhibited | inhibited | inhibited | inhibited |  |  | CC50 at 48 h [7]: 18600 nM; inhibitory activity against the replication of replicon RNA transcribed from NOBEVR [3]: inhibitory activity; EC50 ([3]; Nobecovirus, 48 h, read-out: EC50, inhibition of the replication of replicon RNA transcribed from NOBEVR): 280 nM
NC(=O)c1nc(F)c[nH]c1=O [favipiravir] |  |  |  |  |  | did not inhibit | did not inhibit | 
Cn1cnc(Cn2c(=O)[nH]/c(=N\c3cc4cn(C)nc4cc3Cl)n(Cc3cc(F)c(F)cc3F)c2=O)n1.O=C(O)/C=C/C(=O)O [ensitrevir fumarate] |  |  |  |  |  | did not inhibit | did not inhibit | 
CCC(CC)COC(=O)[C@H](C)N[P@](=O)(OC[C@H]1O[C@@](C#N)(c2ccc3c(N)ncnn23)[C@H](O)[C@@H]1O)Oc1ccccc1 [remdesivir] |  |  |  |  |  | did not inhibit | did not inhibit | 
COc1cc2c(cc1O)[C@@H](Cc1ccc(O)c(Oc3ccc(C[C@@H]4c5cc(OC)c(OC)cc5CCN4C)cc3)c1)N(C)CC2 [daurisoline] |  |  |  |  |  |  |  | inhibitory activity against the replication of replicon RNA transcribed from NOBEVR [3]: strong inhibitory activity; replicon RNA replication inhibitory activity against SC2R [5]: replicon RNA replication inhibitory activity

From EP4678750A1 (priority 2023, dated 2024)
